Results reported in ChEMBL document CHEMBL5385945, “An ascidian Polycarpa aurata-derived pan-inhibitor against coronaviruses targeting Mpro” (Bioorg Med Chem Lett, 2024).

What was measured:
[1] = target: Replicase polyprotein 1ab (Severe acute respiratory syndrome coronavirus 2, UniProt P0DTD1); assay: (§1) Inhibition of SARS-CoV-2 Main protease
[2] = target: Replicase polyprotein 1ab (Severe acute respiratory syndrome coronavirus 2) (UniProt P0DTD1); assay: Inhibition of SARS-CoV-2 Main protease at 2 uM relative to control
[3] = target: Replicase polyprotein 1ab (Severe acute respiratory syndrome coronavirus 2) (UniProt P0DTD1); assay: as §1
[4] = Cytotoxicity against African green monkey Vero E6 cells assessed as reduction of cell viability; assay type: toxicity, cell-based, Vero C1008; conditions: chlorocebus sabaeus
[5] = tested on: Porcine epidemic diarrhea virus; assay: Antiviral activity against Porcine epidemic diarrhea virus infected in African green monkey Vero E6 cells assessed as inhibition of viral replication; assay type: functional, organism-based; conditions: Vero C1008
[6] = Inhibition of Porcine epidemic diarrhea virus Main protease
[7] = Selectivity ratio of CC50 for cytotoxicity against African green monkey Vero E6 cells to EC50 for antiviral activity against SARS-CoV-2 infected in African green monkey Vero E6 cells; assay type: toxicity, cell-based, Vero C1008; conditions: read-out: Ratio CC50/EC50
[8] = tested on: SARS-CoV-2; assay: Antiviral activity against SARS-CoV-2 infected in African green monkey Vero E6 cells assessed as inhibition of viral replication; assay type: functional, organism-based; conditions: Severe acute respiratory syndrome coronavirus 2, Vero C1008

Structure (SMILES)	IC50 [1] [µM]	inhibition [2] [%]	inhibition [3]	CC50 [4] [µM]	EC50 [5] [µM]	IC50 [6] [µM]	selectivity ratio [7]	EC50 [8] [µM]
CC(=O)O[C@H](CC=C(C)C)C1=CC(=O)c2c(O)ccc(O)c2C1=O [ACETYLSHIKONIN]	0.35	> 50						
CC(C)=CC[C@@H](OC(=O)CC(C)(C)O)C1=CC(=O)c2c(O)ccc(O)c2C1=O [BETA-HYDROXYISOVALERYLSHIKONIN]	1.02	> 50						
COc1ccc(-c2nc(N)n(C)c2SSc2c(-c3ccc(OC)cc3)nc(N)n2C)cc1	0.03	> 50	Dose-Dependent Effect	50.2	5.68	0.12	> 10	4.09
